Measurements taken from PubChem BioAssay (NCI).
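Interpolation was linear, between the two tested concentrations surrounding the appropriate level; five concentrations were tested over 48 hours in 96-well plates. TGI: total growth inhibition.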

Experiments:
Experiment in all cases: growth of human tumour cells (NCI), 48 h
[1] = system: 786-0 renal
[2] = system: A498 renal
[3] = system: A549 NSCLC
[4] = system: ACHN renal
[5] = system: BT-549 breast
[6] = system: CAKI-1 renal
[7] = system: COLO 205 colon
[8] = system: DU-145 prostate
[9] = system: EKVX NSCLC
[10] = system: HCC-2998 colon
[11] = system: HCT-116 colon
[12] = system: HCT-15 colon
[13] = system: HL-60(TB) leukemia
[14] = system: HOP-62 NSCLC
[15] = system: HOP-92 NSCLC
[16] = system: HS 578T breast
[17] = system: HT29 colon
[18] = system: IGROV1 ovarian
[19] = system: K-562 leukemia
[20] = system: KM12 colon
[21] = system: LOX IMVI melanoma
[22] = system: M14 melanoma
[23] = system: MALME-3M melanoma
[24] = system: MCF7 breast
[25] = system: MDA-MB-231 breast
[26] = system: MDA-MB-435
[27] = system: MDA-N
[28] = system: MOLT-4 leukemia
[29] = system: NCI-H226 lung
[30] = system: NCI-H23 lung
[31] = system: NCI-H460 lung
[32] = system: NCI-H522 lung
[33] = system: NCI/ADR-RES ovarian
[34] = system: OVCAR-3 ovarian
[35] = system: OVCAR-4 ovarian
[36] = system: OVCAR-5 ovarian
[37] = system: OVCAR-8 ovarian
[38] = system: PC-3 prostate
[39] = system: RPMI-8226 leukemia
[40] = system: RXF 393 renal
[41] = system: SF-268 CNS
[42] = system: SF-295 CNS
[43] = system: SF-539 CNS
[44] = system: SK-MEL-2 melanoma
[45] = system: SK-MEL-28 melanoma
[46] = system: SK-MEL-5 melanoma
[47] = system: SK-OV-3 ovarian
[48] = system: SN12C renal
[49] = system: SNB-19 CNS
[50] = system: SNB-75 CNS
[51] = system: SR leukemia
[52] = system: SW-620 colon
[53] = system: T-47D breast
[54] = system: TK-10 renal
[55] = system: U251 CNS
[56] = system: UACC-257 melanoma
[57] = system: UACC-62 melanoma
[58] = system: UO-31 renal
[59] = system: CCRF-CEM leukemia
[60] = system: DLD-1 colon
[61] = system: DMS 114 small cell lung
[62] = system: DMS 273 small cell lung
[63] = system: KM20L2 colon
[64] = system: LXFL 529 NSCLC
[65] = system: M19-MEL melanoma
[66] = system: SNB-78 CNS
[67] = system: XF 498 CNS

Cc1nnc(SCc2nc(C#N)c(C#N)nc2CSc2nnc(C)s2)s1
TGI [1]: 28.8 µM
TGI [2]: > 66.5 µM
TGI [3]: > 100 µM
TGI [4]: 22.5 µM
TGI [5]: 36.3 µM
TGI [6]: 11.6 µM
TGI [7]: 25.5 µM
TGI [8]: 29.2 µM
TGI [9]: 36.5 µM
TGI [10]: 30.4 µM
TGI [11]: 11.5 µM
TGI [12]: 26.4 µM
TGI [13]: 7.74 µM
TGI [14]: 37.8 µM
TGI [15]: 26.8 µM
TGI [16]: > 59.4 µM
TGI [17]: 37.2 µM
TGI [18]: 33.5 µM
TGI [19]: > 52.3 µM
TGI [20]: 37 µM
TGI [21]: 23.3 µM
TGI [22]: 37.6 µM
TGI [23]: 13 µM
TGI [24]: 34.3 µM
TGI [25]: 31.4 µM
TGI [26]: 26.4 µM
TGI [27]: 49.9 µM
TGI [28]: 12.9 µM
TGI [29]: 54.1 µM
TGI [30]: 45 µM
TGI [31]: > 59.2 µM
TGI [32]: 9.22 µM
TGI [33]: > 92.2 µM
TGI [34]: 20.7 µM
TGI [35]: 31.5 µM
TGI [36]: 34.5 µM
TGI [37]: > 100 µM
TGI [38]: 41.1 µM
TGI [39]: 18 µM
TGI [40]: 18 µM
TGI [41]: 35.4 µM
TGI [42]: > 100 µM
TGI [43]: 40.9 µM
TGI [44]: 63.4 µM
TGI [45]: > 90.8 µM
TGI [46]: 29.2 µM
TGI [47]: > 75.9 µM
TGI [48]: 38.2 µM
TGI [49]: > 100 µM
TGI [50]: 41.1 µM
TGI [51]: 51.4 µM
TGI [52]: 15.6 µM
TGI [53]: 17.3 µM
TGI [54]: 16.3 µM
TGI [55]: 37.5 µM
TGI [56]: 28.3 µM
TGI [57]: 30.7 µM
TGI [58]: 24.1 µM

CN1C(c2ccccc2)CC(O)CC1c1ccccc1 (stereo not given)
TGI [1]: > 100 µM
TGI [2]: > 100 µM
TGI [3]: > 100 µM
TGI [4]: > 100 µM
TGI [6]: > 100 µM
TGI [59]: > 100 µM
TGI [7]: > 100 µM
TGI [60]: > 100 µM
TGI [61]: > 100 µM
TGI [62]: > 100 µM
TGI [9]: > 100 µM
TGI [11]: > 100 µM
TGI [12]: > 100 µM
TGI [13]: > 100 µM
TGI [14]: > 100 µM
TGI [15]: > 100 µM
TGI [17]: > 100 µM
TGI [18]: > 100 µM
TGI [19]: > 100 µM
TGI [20]: > 100 µM
TGI [63]: > 100 µM
TGI [21]: > 100 µM
TGI [64]: > 100 µM
TGI [22]: > 100 µM
TGI [65]: > 100 µM
TGI [23]: > 100 µM
TGI [28]: > 100 µM
TGI [29]: > 100 µM
TGI [30]: > 100 µM
TGI [31]: > 100 µM
TGI [32]: > 100 µM
TGI [34]: > 100 µM
TGI [35]: > 100 µM
TGI [36]: > 100 µM
TGI [37]: > 100 µM
TGI [39]: > 100 µM
TGI [40]: > 100 µM
TGI [41]: > 100 µM
TGI [42]: > 100 µM
TGI [43]: > 100 µM
TGI [44]: > 100 µM
TGI [45]: > 100 µM
TGI [46]: > 100 µM
TGI [47]: > 100 µM
TGI [48]: > 100 µM
TGI [49]: > 100 µM
TGI [50]: > 100 µM
TGI [66]: > 100 µM
TGI [51]: > 100 µM
TGI [52]: > 100 µM
TGI [54]: > 100 µM
TGI [55]: > 100 µM
TGI [56]: > 100 µM
TGI [57]: > 100 µM
TGI [58]: > 100 µM

Cc1cc(NC(=O)NC(=O)c2ccccc2NC(=O)CN(C)C)ccc1Oc1ncc(Br)cn1
TGI [1]: > 89.3 µM
TGI [2]: 17 µM
TGI [3]: > 100 µM
TGI [4]: > 100 µM
TGI [5]: > 100 µM
TGI [6]: 64.3 µM
TGI [59]: > 63.8 µM
TGI [7]: 39.7 µM
TGI [60]: > 100 µM
TGI [61]: 35.7 µM
TGI [62]: > 100 µM
TGI [8]: > 100 µM
TGI [9]: > 100 µM
TGI [10]: 6.05 µM
TGI [11]: > 79.4 µM
TGI [12]: > 100 µM
TGI [13]: 12.5 µM
TGI [14]: > 76.4 µM
TGI [15]: > 100 µM
TGI [16]: > 23.9 µM
TGI [17]: 31.1 µM
TGI [18]: > 100 µM
TGI [19]: > 57.8 µM
TGI [20]: > 100 µM
TGI [63]: 34.7 µM
TGI [21]: > 100 µM
TGI [64]: > 100 µM
TGI [22]: > 57.4 µM
TGI [65]: > 100 µM
TGI [23]: > 100 µM
TGI [24]: > 100 µM
TGI [25]: > 78.1 µM
TGI [26]: 3.09 µM
TGI [27]: 0.505 µM
TGI [28]: 59.8 µM
TGI [29]: > 92.7 µM
TGI [30]: 65.9 µM
TGI [31]: > 95 µM
TGI [32]: 10.3 µM
TGI [33]: > 27.8 µM
TGI [34]: 13.1 µM
TGI [35]: > 100 µM
TGI [36]: > 100 µM
TGI [37]: > 100 µM
TGI [38]: > 100 µM
TGI [39]: > 100 µM
TGI [40]: 22.8 µM
TGI [41]: > 100 µM
TGI [42]: 16.2 µM
TGI [43]: 10.6 µM
TGI [44]: > 85.1 µM
TGI [45]: > 56.2 µM
TGI [46]: > 100 µM
TGI [47]: > 91.5 µM
TGI [48]: > 100 µM
TGI [49]: > 100 µM
TGI [50]: 37.2 µM
TGI [66]: > 100 µM
TGI [51]: > 79.5 µM
TGI [52]: > 100 µM
TGI [53]: > 100 µM
TGI [54]: > 100 µM
TGI [55]: > 86.6 µM
TGI [56]: > 100 µM
TGI [57]: > 82.9 µM
TGI [58]: > 100 µM
TGI [67]: > 100 µM
